# Counter-ions that a name gives are not always drawn. Like-named read-outs stand apart in the source and are kept apart here.
# What was measured:
# [1] = biological target: Human or Rat Nicotinic Acetylcholine α4β2 receptor (UniProt P09483+P12390); assay: Binding assay for Human or Rat Nicotinic Acetylcholine α4β2 receptor ([3H] Cytisine); conditions: [3H] Cytisine 2.5 nM, rat brain frontal cortex or recombinant human cDNA expressed in CHO cells
# Method: Binding assay for Human or Rat Nicotinic Acetylcholine α4β2 receptor
# Compounds can be evaluated according to the following procedures.
# Materials and Methods: • Receptor source: Rat brain frontal cortex or recombinant human cDNA expressed in CHO cells • Radioligand: [^3H] Cytisine 15-40 Ci/mmol • Final ligand concentration—[2.5 nM] • Non-specific determinant: Epibatidine-[0.1 μM] • Reference compound: Epibatidine • Positive control: Epibatidine Incubation Conditions:
# Increasing concentrations of test compounds or standard were incubated with membrane receptors and radioligand in 120 mM NaCl, 2.5 mM KCl, 1 mM CaCl2, 1 mM MgCl2 and 50 mM TRIS-HCl (pH 7.4) for 60 minutes at room temperature. The reaction was terminated by rapid vacuum filtration onto the glass fiber filters. Radioactivity trapped onto the filters was determined and compared to the control values in order to ascertain any interactions of the test compound(s) with either cloned human or rat receptor binding site.
# Literature Reference: Bunnelle W. H., Daanen J. F., Ryther K. B., Schrimpf M. R., Dart M. J., Gelain A., Meyer M. D., Frost J. M., Anderson D. J., Buckley M., Curzon P., Cao Y-J., Puttfarcken P., Searle X., Ji J., Putman C. B., Surowy C., Toma L. and Barlocco D. Structure-Activity Studies and Analgesic Efficacy of N-(3-Pyridinyl)-Bridged Bicyclic Diamines, Exceptionally Potent Agonists at Nicotinic Acetylcholine Receptors. J. Med. Chem. 2007, 50, […].
# [2] = biological target: T1, recombinant human α4β2 nicotinic acetylcholine receptor (Homo sapiens, UniProt P17787+P43681); assay: Determination of IC50 and Kb values, aequorin luminescence assay in CHO cells; format: cell-based
# T1 construct: expressed in transfected cells
# T1 sequence (P43681 29-627): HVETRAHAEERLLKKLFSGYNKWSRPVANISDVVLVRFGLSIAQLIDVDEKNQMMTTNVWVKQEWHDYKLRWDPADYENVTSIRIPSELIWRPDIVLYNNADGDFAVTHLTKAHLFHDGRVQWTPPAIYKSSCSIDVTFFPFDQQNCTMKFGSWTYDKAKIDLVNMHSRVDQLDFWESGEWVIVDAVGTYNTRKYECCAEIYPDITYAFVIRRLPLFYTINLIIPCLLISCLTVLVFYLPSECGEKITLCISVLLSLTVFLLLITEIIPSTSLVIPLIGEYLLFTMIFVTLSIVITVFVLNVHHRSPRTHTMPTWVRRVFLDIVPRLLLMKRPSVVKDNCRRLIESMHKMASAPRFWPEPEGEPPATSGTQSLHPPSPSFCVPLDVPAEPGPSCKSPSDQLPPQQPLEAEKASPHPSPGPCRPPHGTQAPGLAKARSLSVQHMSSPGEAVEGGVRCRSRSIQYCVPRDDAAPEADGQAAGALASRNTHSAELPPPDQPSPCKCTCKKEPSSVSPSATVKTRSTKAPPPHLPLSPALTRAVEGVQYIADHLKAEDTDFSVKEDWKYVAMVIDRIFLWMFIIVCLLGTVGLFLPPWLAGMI
# T1 sequence (P17787 26-502): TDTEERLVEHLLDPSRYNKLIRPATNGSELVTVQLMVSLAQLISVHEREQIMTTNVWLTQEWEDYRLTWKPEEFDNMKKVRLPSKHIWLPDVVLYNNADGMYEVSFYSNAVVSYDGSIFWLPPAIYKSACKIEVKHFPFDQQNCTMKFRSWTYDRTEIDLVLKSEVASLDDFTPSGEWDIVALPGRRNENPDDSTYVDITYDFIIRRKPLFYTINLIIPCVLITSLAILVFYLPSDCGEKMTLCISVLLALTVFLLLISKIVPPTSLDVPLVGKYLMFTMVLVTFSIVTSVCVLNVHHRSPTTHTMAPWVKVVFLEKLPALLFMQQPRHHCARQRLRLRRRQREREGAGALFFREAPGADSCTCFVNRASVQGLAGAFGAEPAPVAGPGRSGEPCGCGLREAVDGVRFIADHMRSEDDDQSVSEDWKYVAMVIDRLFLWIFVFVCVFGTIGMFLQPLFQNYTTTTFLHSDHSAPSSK
# Method: Determination of IC50 and Kb Values for Nicotinic Acetylcholine α4β2 Receptor Ligands
# A stable CHO cell line expressing recombinant human α4β2 nicotinic acetylcholine receptor transiently expressing aequorin protein was used for cell-based assay. The assay offers a non-radioactive based approach to determine binding of a compound to ligand gated ion channels. In this specific assay, the level of intracellular calcium which is modulated by activation or inhibition of the channel is measured. Both the channel and aequorin genes are expressed at high level under the control of powerful CMV promotor.
# The above cells were grown in 96 well clear bottom white plates in Hams F12 medium containing 10% fetal bovine serum (FBS). Prior to the addition of compounds and/or agonist, cells were serum starved for six hours. Coelentarazine (a prosthetic group for aequorin protein) was added in the medium containing 0.1% dialyzed serum and incubated overnight at 27° C. Cells were washed with assay buffer and increasing concentration of the test compound or standard were added to the plate for antagonist mode. A fixed concentration of the agonist (eipbatidine) was injected into the plate and luminescence was measured for 10 seconds. For evaluation of the compound in agonist mode, increasing concentration of the standard or test compound was injected and the luminescence was measured. Luminescence units were plotted against the compound concentrations using Graphpad software. IC50 values of the compounds were defined as the concentration required in reducing the luminescent units by 50%. The Kb values were calculated by feeding the concentration of the agonist used in the assay and its EC50 value in the same software.
# Literature References: Karadsheh M. S., Shah M. S., Tang X., Macdonald R. L. and Stitzel J. A. Functional characterization of mouse α4β2 nicotinic acetylcholine receptors stably expressed in HEK293T cells. J. Neurochem. 2004, 91, 1138-1150.
# [3] = Rodent Brain Penetration Study; conditions: in vivo; Wistar rat male, P.O, 5 mg/kg; read-out: Steady State Brain Penetration (Cb/Cp)
# Method: Rodent Brain Penetration Study
# Male Wistar rats (230-280 grams) obtained from NIN (National Institute of Nutrition, Hyderabad, India) was used as an experimental animal. Three animals were housed in each cage. Animals were given water and food ad libitum throughout the experiment, and maintained on a 12 hours light/dark cycle.
# NCE compound was dissolved in water and administered orally. At Tmax (0.5, 1.0 and 2.0) animals were sacrificed to collect the plasma and brain tissue and was homogenized. Plasma and Brain was stored frozen at −20° C. until analysis. The concentrations of the NCE compound in plasma and Brain were determined using LC-MS/MS method.
# The NCE compounds were quantified in plasma and brain homogenate by validated LC-MS/MS method using solid phase extraction technique. NCE compounds were quantified in the calibration range of 1-500 ng/mL in plasma and brain homogenate. Study samples were analyzed using calibration samples in the batch and quality control samples spread across the batch. Extents of brain-blood ratio were calculated (Cb/Cp).
# [4] = Rodent Pharmacokinetic Study; conditions: Wistar, in vivo, Wister rat male; for AUC(0-t) / Cmax / Tmax / half-life: 5 mg/kg; for bioavailability: P.O 5 mg/kg vs I.V 5 mg/kg
# Method: Rodent Pharmacokinetic Study
# Male wistar rats (230-280 grams) obtained from NIN (National Institute of Nutrition, Hyderabad, India) were used as an experimental animal. Three to five animals were housed in each cage. Animals were kept fasted over night and maintained on a 12 hours light/dark cycle. […]
# At each time point blood was collected by jugular vein. Plasma was stored frozen at −20° C. until analysis. The concentrations of the NCE compound in plasma were determined using LC-MS/MS method. Schedule time points: Pre dose 0.25, 0.5, 1, 1.5, 2, 3, 4, 6, 8, 10, 12 and 24 hours after dosing (n=3). The NCE compounds were quantified in plasma by validated LC-MS/MS method using solid phase extraction technique. NCE compounds were quantified in the calibration range of 1-2000 ng/mL in plasma. Study samples were analyzed using calibration samples in the batch and quality control samples spread across the batch. Pharmacokinetic parameters Cmax, Tmax, AUCs, T112 and Bioavailability were calculated by non-compartmental model using software WinNonlin version 5.0.1.
# Male Wister rats = assay: Reversal of Formalin Induced Nociception; format: in vivo; conditions: rat, p.o., formalin 5% v/v subplantar
# Method: Reversal of Formalin Induced Nociception
# The anti-nociceptive properties of compounds of this invention were evaluated using a model of pain: the Formalin Induced Nociception model. Male Wister rats (230-280 grams) obtained from N. I. N. (National Institute of Nutrition, Hyderabad, India) was used as experimental animals.
# Rats were habituated for 20 minutes in the arena before the experiment was started. Duration of licks, bites and flinches were noted from 0-10 minutes and 20-35 minutes after administration of formalin, subplantar into the right hind paw at concentrations of 5% v/v. 50 μL of water for injection was injected into the right hind paw of the rats of the sham group. Compounds of this invention were administered orally prior to formalin administration.
# [5] = antagonist mode, fixed concentration of agonist epibatidine, CHO cells, luminescence, read-out: Kb
smiles,measurement,setting,value
"CN1C(COc2cccnc2Cl)CC2CC21 (centres unmarked) [Example 11, 3-(2-Chloropyridin-3-yloxymethyl)-2-methyl-2-azabicyclo[3.1.0]hexane]",Ki,[1]; read-out: Ki,28.1 nM
same,Kb,[2],13.5 nM
"CN1C(COc2cncc(Br)c2)CC2CC21 (centres unmarked) [Example 17, 3-(5-Bromopyridin-3-yloxymethyl)-2-methyl-2-azabicyclo[3.1.0]hexane dihydrochloride]",Ki,[1]; read-out: Ki,4.2 nM
"Cc1ncccc1OCC1CC2CC2N1C (centres unmarked) [Example 12, 2-Methyl-3-(2-methylpyridin-3-yloxymethyl)-2-azabicyclo[3.1.0]hexane]",Ki,[1]; read-out: Ki,231 nM
"Cc1ccc(OCC2CC3CC3N2)cn1 (centres unmarked) [Example 18, 3-(2-Methylpyridin-5-yloxymethyl)-2-azabicyclo[3.1.0]hexane]",Ki,[1],26.1 nM
same,Kb,[2]; [5],22 nM
"CN1C(COc2cccnc2)CC2CC21 (centres unmarked) [Example 2, 2-Methyl-3-(pyridin-3-yloxymethyl)-2-azabicyclo[3.1.0]hexane]",Ki,[1]; read-out: Ki,5.5 nM
same,Kb,[2],0.4 nM
"Cl.Cl.Clc1ccc(OCC2CC3CC3N2)cn1 (centres unmarked) [Example 5, 3-(2-Chloropyridin-5-yloxymethyl)-2-azabicyclo[3.1.0]hexane dihydrochloride]",Ki,[1],1.5 nM
same,Kp,[3],2.34 ± 0.25
same,AUC(0-t),"[4]; iv, I.V",5380 ± 821 ng·h/mL
same,Cmax,"[4]; iv, I.V",2720 ± 588 ng/mL
same,Tmax,"[4]; iv, I.V",4.8 min
same,half-life,"[4]; iv, I.V",151 ± 25.8 min
same,bioavailability,[4]; po,66 ± 12%
same,AUC(0-t),"[4]; po, P.O",3510 ± 657 ng·h/mL
same,Cmax,"[4]; po, P.O",1910 ± 675 ng/mL
same,Tmax,"[4]; po, P.O",15 min
same,half-life,"[4]; po, P.O",200 ± 36 min
"Fc1ncccc1OCC1CC2CC2N1 (centres unmarked) [Example 9, 3-(2-Fluoropyridin-3-yloxymethyl)-2-azabicyclo[3.1.0]hexane tartrate]",Ki,[1]; read-out: Ki,17.4 nM
"Cl.Cl.Clc1ncccc1OCC1CC2CC2N1 (centres unmarked) [Example 4, 3-(2-Chloropyridin-3-yloxymethyl)-2-azabicyclo[3.1.0]hexane dihydrochloride]",Ki,[1]; read-out: Ki,17.5 nM
same,Kp,[3],3.6 ± 0.99
same,AUC(0-t),"[4]; iv, I.V",4160 ± 878 ng·h/mL
same,Cmax,"[4]; iv, I.V",2600 ± 42 ng/mL
same,Tmax,"[4]; iv, I.V",4.8 min
same,half-life,"[4]; iv, I.V",93 ± 15 min
same,bioavailability,[4]; po,54 ± 23%
same,AUC(0-t),"[4]; po, P.O",2160 ± 658 ng·h/mL
same,Cmax,"[4]; po, P.O",921 ± 268 ng/mL
same,Tmax,"[4]; po, P.O",15 min
same,half-life,"[4]; po, P.O",129 ± 30.6 min
"Cc1ccc(OCC2CC3CC3N2C)cn1 (centres unmarked) [Example 13, 2-Methyl-3-(2-methylpyridin-5-yloxymethyl)-2-azabicyclo[3.1.0]hexane]",Ki,[1],0.3 nM
same,Kb,[2]; [5],5 nM
"CN1C(COc2cccnc2F)CC2CC21 (centres unmarked) [Example 10, 3-(2-Fluoropyridin-3-yloxymethyl)-2-methyl-2-azabicyclo[3.1.0]hexane tartrate]",Ki,[1]; read-out: Ki,31.9 nM
"Cc1ncccc1OCC1CC2CC2N1 (centres unmarked) [Example 3, 3-(2-Methylpyridin-3-yl-oxymethyl)-2-azabicyclo[3.1.0]hexane dihydrochloride]",Ki,[1]; read-out: Ki,1000 nM
"CN1C(COc2cncc(Cl)c2)CC2CC21 (centres unmarked) [Example 16, 3-(5-Chloropyridin-3-yloxymethyl)-2-methyl-2-azabicyclo[3.1.0]hexane]",Ki,[1]; read-out: Ki,0.37 nM
same,Kb,[2],0.4 nM
"c1cncc(OCC2CCC3CC3N2)c1 (centres unmarked) [Example 19, 3-(Pyridin-3-yloxymethyl)-2-azabicyclo[4.1.0]heptane hydrochloride]",Ki,[1]; read-out: Ki,8.2 nM
"Clc1cncc(OCC2CCC3CC3N2)c1 (centres unmarked) [Example 20, 3-(5-Chloropyridin-3-yloxymethyl)-2-azabicyclo[4.1.0]heptane hydrochloride]",Ki,[1]; read-out: Ki,216 nM
"CN1C(COc2ccc(Cl)nc2)CC2CC21 (centres unmarked) [Example 14, 3-(2-Chloropyridin-5-yloxymethyl)-2-methyl-2-azabicyclo[3.1.0]hexane]",Ki,[1]; read-out: Ki,3.4 nM
"CN1C(COc2ccc(F)nc2)CC2CC21 (centres unmarked) [Example 15, 3-(2-Fluoropyridin-5-yloxymethyl)-2-methyl-2-azabicyclo[3.1.0]hexane]",Ki,[1]; read-out: Ki,1.1 nM
"Cl.Cl.Fc1ccc(OCC2CC3CC3N2)cn1 (centres unmarked) [Example 6, 3-(2-Fluoropyridin-5-yloxymethyl)-2-azabicyclo[3.1.0]hexane dihydrochloride]",Ki,[1]; read-out: Ki,3.9 nM
same,Dose (reversal of formalin induced nociception),Male Wister rats,"≦30 mg/kg, p.o."
"Brc1cncc(OCC2CC3CC3N2)c1 (centres unmarked) [Example 8, 3-(5-Bromopyridin-3-yloxymethyl)-2-azabicyclo[3.1.0]hexane tartrate]",Ki,[1]; read-out: Ki,6.4 nM

# From patent publication US8735423B2, “Bicyclic compounds as α4β2 nicotinic acetylcholine receptor ligands” (priority 2009, dated 2014)
